The results in this text go back to ChEMBL document CHEMBL5584258, “Synthesis, biosimulation and pharmacological evaluation of benzimidazole derivatives with antihypertensive multitarget effect” (Bioorg Med Chem Lett, 2024).

Calls of active or inactive are those of the source. The calls are words filed in the database; no cut-off is given here.

The species named for test [1] is Rattus norvegicus. The test is described as follows: Antagonist activity at AT1 Ang II receptor in noradrenaline sensitized rat aorta assessed as inhibition of angiotensin II induced contraction at 10 uM preincubated for 15 mins followed by angiotensin II addition. The class given is tissue-based. The settings on record: filed as antagonist.
Test [2] is filed under the species Rattus norvegicus. Put plainly: Antagonist activity at AT1 Ang II receptor in rat kidney assessed as reduction in angiotensin II induced renal perfusion pressure at 1 uM measured after […]. The class given is tissue-based. The settings on record: time […].
Test [3] concerns Rattus norvegicus. Put plainly: Antihypertensive activity in spontaneously hypertensive rat assessed as reduction in systolic blood pressure at 5 mg/kg, ip measured for 6 hrs by tail-cuff method. It is filed as functional, organism-based.
Test [4] has as its system Aorta. Put plainly: Vasorelaxant activity in rat aorta assessed as relaxation of noradrenaline-induced vascular contraction at 10 uM relative to control. It is filed as functional. Also noted: scale not given: the % may be the effect or the level left.
The test system of test [5] is Aorta. Put plainly: Vasorelaxant activity in rat aorta assessed as relaxation of noradrenaline-induced vascular contraction at 10 uM incubated in presence of endothelium. The class given is functional, tissue-based.
The subject of test [6] is Aorta. Put plainly: Vasorelaxant activity in rat aorta assessed as relaxation of noradrenaline-induced vascular contraction at 10 uM incubated in absence of endothelium. It is filed as functional, tissue-based.
Test [7] addresses Voltage-gated L-type calcium channel (Rattus norvegicus, UniProt P22002+Q02485+P27732). Put plainly: Inhibition of L-type calcium channel in rat aorta assessed as vasorelaxation of thoracic aorta in presence of endothelium. It is filed as tissue-based.
Test [8] has as its system Rattus norvegicus. The test is described as follows: Antihypertensive activity in spontaneously hypertensive rat assessed as reduction in systolic blood pressure at 20 mg/kg, ip measured for 6 hrs by tail-cuff method. The class given is functional, organism-based.

Regarding `O=[N+]([O-])c1ccc2[nH]c(SCc3ccc(-c4ccccc4-c4nnn[nH]4)cc3)nc2c1`, in test [1], the result was Active. Further, in test [2], the result was inactive.

As to `Cc1ccc2[nH]c(SCc3ccc(C(=O)Nc4nnn[nH]4)cc3)nc2c1`, the result in test [1] was Active. In addition, the outcome in test [2] was inactive.

On to `CCCc1nc2c(C)cc(-c3nc4ccccc4n3C)cc2n1Cc1ccc(-c2ccccc2C(=O)O)cc1`, for which the result in test [1], in test [2] (filed as antagonist) and in test [3] was Active.

Consider `O=C(Nc1nnn[nH]1)c1ccc(CSc2nc3cc([N+](=O)[O-])ccc3[nH]2)cc1`, for which the outcome in test [1] was Active. Moreover, the outcome in test [2] was inactive.

For `O=C(O)c1ccc2[nH]c(SCc3ccc(-c4ccccc4-c4nnn[nH]4)cc3)nc2c1`, the Activity in test [4] was determined as 88.7%. In addition, the outcome in test [5], in test [6], in test [1], in test [2] (filed as antagonist) and in test [8] was Active. In addition, the 50% inhibitory concentration (IC50) (commonly the midpoint of a concentration-inhibition curve) in test [7] amounted to 570 nM.

Consider `O=C(O)c1cccc2[nH]c(SCc3ccc(-c4ccccc4-c4nnn[nH]4)cc3)nc12`, for which, in test [4], the Activity is 57.3%. Moreover, the result in test [5] and in test [1] was Active. Moreover, the result in test [2] was inactive.

Regarding `O=C(O)c1ccc2[nH]c(SCc3ccc(C(=O)Nc4nnn[nH]4)cc3)nc2c1`, the outcome in test [1] was Active. In test [2], the result was inactive.

Take `O=C(Nc1nnn[nH]1)c1ccc(CSc2nc3c(C(=O)O)cccc3[nH]2)cc1`: the result in test [1] was Active. The result in test [2] was inactive.
